Usually EC50 stands for the concentration needed to bring the measured effect to its halfway point. Low readings indicate greater potency, high ones weaker potency.

The record followed here is patent US20230114728A1 (Venatorx Pharmaceuticals, Inc., priority 2019, published 2023).

For one test, the target named is T1, E. coli K12 PBP3 (Escherichia coli, UniProt P0AD68).
T1 construct: made in house
Kind of test: biochemical. The class given is binding. The gist of the method: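 A. baumannii PBP2 (2.5 μM) and PBP3 (0.2 μM) were run in 25 mM Tris pH 8.0 buffer with Tween 20; E. coli PBP3 (1.5 μM) and N. gonorrhoeae PBP2 ([…]) in 50 mM Hepes pH 8.0 buffer.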

Test [1] relates to N. gonorrhoeae ATCC 49226. Kind of test: Liquid broth MIC in Fastidious broth. The class given is cell-based. Conditions: Neisseria gonorrhoeae, ATCC49226; N. gonorrhoeae ATCC 49226; Fastidious broth; read-out: Minimum Inhibitory Concentration, ATCC 49226. The gist of the method: (§1)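 Colonies were swabbed from chocolate agar after 24 h growth and standardised by optical density at 600 nm. Compounds were serially diluted twofold in Fastidious broth, and bacteria added to give 5×10^5 CFU/mL. After about 24 h at 36 °C in 5% CO2, the lowest concentration allowing under 10% growth was taken as MIC.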

The next test has as its system N. gonorrhoeae WHO K. Put plainly: Liquid broth MIC in Fastidious broth. The class given is cell-based. Conditions: Neisseria gonorrhoeae, read-out: Minimum Inhibitory Concentration, WHO K. The method in brief:
(§2)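 Mosaic-PBP2 strains grown 24 h on chocolate agar (36 °C, 5% CO2), then direct-suspended in saline and OD600-adjusted. Twofold compound dilutions in Fastidious broth inoculated at 5×10^5 CFU/mL and incubated ~24 h at 36 °C, 5% CO2. MIC read visually as lowest concentration with <10% growth versus full-growth wells.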

For another test, the system named is N. gonorrhoeae WHO L. Put plainly: Liquid broth MIC in Fastidious broth. Type of test: cell-based. To be noted: Neisseria gonorrhoeae; N. gonorrhoeae WHO L; Fastidious broth; read-out: Minimum Inhibitory Concentration, WHO L. The method in brief:
as §1

The next test relates to N. gonorrhoeae WHO G. Kind of test: Liquid broth MIC in Fastidious broth. Conditions: Neisseria gonorrhoeae; N. gonorrhoeae WHO G; Fastidious broth; read-out: Minimum Inhibitory Concentration, WHO G. The class given is cell-based. The method in brief:
as §1

For another test, the system named is N. gonorrhoeae WHO Z. Kind of test: Liquid broth MIC in Fastidious broth. Type of test: cell-based. Conditions: Neisseria gonorrhoeae, read-out: Minimum Inhibitory Concentration, WHO Z. The method in brief:
as §2

The test system of the next test is N. gonorrhoeae WHO Q. Kind of test: Liquid broth MIC in Fastidious broth. The class given is cell-based. To be noted: Neisseria gonorrhoeae, read-out: Minimum Inhibitory Concentration, WHO Q. The method in brief:
as §2

For another test, the system named is N. gonorrhoeae FA1090. Put plainly: Liquid broth MIC in Fastidious broth. The class given is cell-based. Conditions: Neisseria gonorrhoeae; N. gonorrhoeae FA1090; Fastidious broth; read-out: Minimum Inhibitory Concentration, FA1090. The gist of the method: as §1
A further test deals with N. gonorrhoeae H041. Kind of test: Liquid broth MIC in Fastidious broth. Conditions: Neisseria gonorrhoeae, H041, read-out: Minimum Inhibitory Concentration, H041. The class given is cell-based. The method in brief:
as §2

A further test addresses T2, P. aeruginosa PBP3 (Pseudomonas aeruginosa, UniProt G3XD46).
T2 construct: made in house
Kind of test: Bocillin-FL fluorescence polarization competition binding assay, P. aeruginosa PBP3. Conditions: fluorescence polarization competition binding assay using Bocillin-FL. The method in brief:
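Inhibitor competition with Bocillin-FL for P. aeruginosa PBP3 was followed by fluorescence polarization on a Cytation3 (BioTek) reader, using g-factor 0.96, 490 nm excitation and 520 nm emission. The enzyme was at 0.75 μM and the probe at 0.1 μM in Hepes/NaCl/glycerol buffer, 80 μl per well. FP was recorded immediately after probe addition for up to 60 minutes. Potency was expressed as EC50, the concentration that reduces bound probe by 50%.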
A general note: In fluorescence polarisation assays a small probe gives low polarisation when free and higher when bound to something large.

Structures are written as SMILES. In brackets after ≈: the same amount, converted by molar mass.

T2 sequence (G3XD46 whole entry): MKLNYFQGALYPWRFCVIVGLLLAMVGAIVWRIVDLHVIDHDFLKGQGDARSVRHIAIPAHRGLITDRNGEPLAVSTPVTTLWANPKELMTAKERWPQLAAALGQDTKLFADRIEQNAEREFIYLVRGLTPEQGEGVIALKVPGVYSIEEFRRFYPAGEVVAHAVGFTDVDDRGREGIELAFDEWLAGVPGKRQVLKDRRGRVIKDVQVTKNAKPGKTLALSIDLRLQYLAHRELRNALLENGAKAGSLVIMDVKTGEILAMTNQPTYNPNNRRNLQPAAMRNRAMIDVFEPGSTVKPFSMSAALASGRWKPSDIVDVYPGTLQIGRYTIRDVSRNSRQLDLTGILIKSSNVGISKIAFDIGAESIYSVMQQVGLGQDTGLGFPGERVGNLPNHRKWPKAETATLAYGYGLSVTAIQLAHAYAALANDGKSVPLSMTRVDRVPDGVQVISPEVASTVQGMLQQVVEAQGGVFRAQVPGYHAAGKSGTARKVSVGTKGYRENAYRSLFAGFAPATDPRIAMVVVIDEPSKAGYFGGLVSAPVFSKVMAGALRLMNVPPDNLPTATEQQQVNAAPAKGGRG
T1 sequence (P0AD68 1-577): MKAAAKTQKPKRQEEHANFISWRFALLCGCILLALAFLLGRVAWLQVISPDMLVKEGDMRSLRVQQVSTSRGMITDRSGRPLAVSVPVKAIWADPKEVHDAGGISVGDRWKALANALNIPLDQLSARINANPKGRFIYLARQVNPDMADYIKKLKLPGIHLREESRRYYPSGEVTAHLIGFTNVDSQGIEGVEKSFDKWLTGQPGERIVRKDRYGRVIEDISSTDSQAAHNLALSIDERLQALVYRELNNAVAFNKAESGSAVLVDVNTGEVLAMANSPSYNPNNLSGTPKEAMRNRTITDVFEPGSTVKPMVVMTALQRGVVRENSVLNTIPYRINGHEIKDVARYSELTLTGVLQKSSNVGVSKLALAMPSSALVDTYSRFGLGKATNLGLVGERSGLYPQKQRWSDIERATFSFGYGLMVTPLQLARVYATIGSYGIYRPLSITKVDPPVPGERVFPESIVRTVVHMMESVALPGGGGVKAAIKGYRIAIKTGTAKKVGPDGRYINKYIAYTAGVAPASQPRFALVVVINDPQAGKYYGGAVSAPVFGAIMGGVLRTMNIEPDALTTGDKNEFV

Turning to `CCN1CCN(C(=O)NC(C(=O)N[C@H]2Cc3cccc(C(=O)O)c3OB2O)c2ccc(C(=O)O)c(Cl)c2Cl)C(=O)C1=O` (stereo partly drawn) [Example 201, (3R)-3-(2-(4-carboxy-2,3-dichlorophenyl)-2-(4-ethyl-2,3-dioxopiperazine-1-carboxamido)acetamido)-2-hydroxy-3,4-dihydro-2H-benzo[e][1,2]oxaborinine-8-carboxylic acid], at E. coli K12 PBP3, the EC50 was less than 30 µM. The MIC in test [1] was 4 to 8 µg/mL (≈ 6.44 to 12.9 µM); with N. gonorrhoeae WHO K it was 16 to 32 µg/mL (≈ 25.8 to 51.5 µM); with N. gonorrhoeae WHO L, greater than 64 µg/mL; with N. gonorrhoeae WHO G, 4 to 8 µg/mL (≈ 6.44 to 12.9 µM); in the test with N. gonorrhoeae WHO Z it was 16 to 32 µg/mL (≈ 25.8 to 51.5 µM); in the test on N. gonorrhoeae WHO Q, 16 to 32 µg/mL (≈ 25.8 to 51.5 µM). Besides, the MIC with N. gonorrhoeae FA1090 was 1 to 2 µg/mL (≈ 1.61 to 3.22 µM); with N. gonorrhoeae H041, greater than 64 µg/mL. Moreover, the “P. aeruginosa PBP3 Potency” value on P. aeruginosa PBP3 is recorded as “D (D represents a potency <10 μM)”.

Consider `CS(=O)(=O)N1CCN(C(=O)NC(C(=O)N[C@H]2Cc3ccc(F)c(C(=O)O)c3OB2O)c2c(Cl)cc(O)c(O)c2F)C1=O` (stereo partly drawn) [Example 208, (3R)-3-(2-(6-chloro-2-fluoro-3,4-dihydroxyphenyl)-2-(3-(methylsulfonyl)-2-oxoimidazolidine-1-carboxamido)acetamido)-7-fluoro-2-hydroxy-3,4-dihydro-2H-benzo[e][1,2]oxaborinine-8-carboxylic acid], for which the EC50 at E. coli K12 PBP3 is less than 30 µM. Moreover, the MIC was greater than 64 µg/mL in test [1]; greater than 64 µg/mL with N. gonorrhoeae WHO K; greater than 64 µg/mL in the test on N. gonorrhoeae WHO L; 16 to 32 µg/mL (≈ 25.3 to 50.6 µM) with N. gonorrhoeae WHO G; greater than 64 µg/mL in the test with N. gonorrhoeae WHO Z; greater than 64 µg/mL in the test on N. gonorrhoeae WHO Q. Further, the MIC in the test on N. gonorrhoeae FA1090 was 4 to 8 µg/mL (≈ 6.32 to 12.6 µM); in the test on N. gonorrhoeae H041, greater than 64 µg/mL. Also, the “P. aeruginosa PBP3 Potency” value on P. aeruginosa PBP3 is “D (D represents a potency <10 μM)”.

At E. coli K12 PBP3, `CCN1CCN(C(=O)NC(C(=O)N[C@H]2Cc3cccc(C(=O)O)c3OB2O)c2cc(C#N)c(O)cc2F)C(=O)C1=O` (stereo partly drawn) [Example 209, (3R)-3-(2-(5-cyano-2-fluoro-4-hydroxyphenyl)-2-(4-ethyl-2,3-dioxopiperazine-1-carboxamido)acetamido)-2-hydroxy-3,4-dihydro-2H-benzo[e][1,2]oxaborinine-8-carboxylic acid] came in with an EC50 of less than 30 µM. Moreover, the MIC in test [1] was in the range of 4 to 8 µg/mL (≈ 7.05 to 14.1 µM); with N. gonorrhoeae WHO K it was 16 to 32 µg/mL (≈ 28.2 to 56.4 µM); with N. gonorrhoeae WHO L it was 16 to 32 µg/mL (≈ 28.2 to 56.4 µM); in the test with N. gonorrhoeae WHO G, 4 to 8 µg/mL (≈ 7.05 to 14.1 µM); in the test with N. gonorrhoeae WHO Z it was 4 to 8 µg/mL (≈ 7.05 to 14.1 µM); with N. gonorrhoeae WHO Q, 16 to 32 µg/mL (≈ 28.2 to 56.4 µM). The MIC was 0.25 to 0.5 µg/mL (≈ 0.441 to 0.881 µM) with N. gonorrhoeae FA1090 and 16 to 32 µg/mL (≈ 28.2 to 56.4 µM) in the test on N. gonorrhoeae H041. On P. aeruginosa PBP3, the “P. aeruginosa PBP3 Potency” value is given as “D (D represents a potency <10 μM)”.

On to `CCN1CCN(C(=O)N[C@@H](C(=O)N[C@H]2Cc3ccc(F)c(C(=O)O)c3OB2O)c2ccc(O)c(O)c2)C(=O)C1=O` [Example 211, (R)-3-((R)-2-(3,4-dihydroxyphenyl)-2-(4-ethyl-2,3-dioxopiperazine-1-carboxamido)acetamido)-7-fluoro-2-hydroxy-3,4-dihydro-2H-benzo[e][1,2]oxaborinine-8-carboxylic acid], for which the EC50 at E. coli K12 PBP3 is less than 30 µM. Further, the MIC was 16 to 32 µg/mL (≈ 28.7 to 57.3 µM) in test [1]; 16 to 32 µg/mL (≈ 28.7 to 57.3 µM) with N. gonorrhoeae WHO K; greater than 64 µg/mL in the test with N. gonorrhoeae WHO L; 16 to 32 µg/mL (≈ 28.7 to 57.3 µM) in the test with N. gonorrhoeae WHO G; 16 to 32 µg/mL (≈ 28.7 to 57.3 µM) in the test with N. gonorrhoeae WHO Z; 16 to 32 µg/mL (≈ 28.7 to 57.3 µM) with N. gonorrhoeae WHO Q. The figures for the MIC in the test with N. gonorrhoeae FA1090 and with N. gonorrhoeae H041 were 4 to 8 µg/mL (≈ 7.16 to 14.3 µM) and 16 to 32 µg/mL (≈ 28.7 to 57.3 µM), respectively. The “P. aeruginosa PBP3 Potency” value at P. aeruginosa PBP3 is on record as “D (D represents a potency <10 μM)”.

For the compound `O=C(O)c1cccc2c1OB(O)[C@@H](NC(=O)C(NC(=O)N1CCN(C3CNC3)C(=O)C1=O)c1c(F)cc(O)cc1F)C2` (stereo partly drawn) [Example 212, (3R)-3-(2-(4-(azetidin-3-yl)-2,3-dioxopiperazine-1-carboxamido)-2-(2,6-difluoro-4-hydroxyphenyl)acetamido)-2-hydroxy-3,4-dihydro-2H-benzo[e][1,2]oxaborinine-8-carboxylic acid], the EC50 on E. coli K12 PBP3 was less than 30 µM. Moreover, the MIC in test [1] was 16 to 32 µg/mL (≈ 27.2 to 54.5 µM); in the test on N. gonorrhoeae WHO K it was greater than 64 µg/mL; with N. gonorrhoeae WHO L it was greater than 64 µg/mL; in the test with N. gonorrhoeae WHO G it was 16 to 32 µg/mL (≈ 27.2 to 54.5 µM); in the test on N. gonorrhoeae WHO Z, greater than 64 µg/mL; in the test with N. gonorrhoeae WHO Q, greater than 64 µg/mL. The MIC in the test with N. gonorrhoeae FA1090 is 1 to 2 µg/mL (≈ 1.7 to 3.41 µM); with N. gonorrhoeae H041 it was greater than 64 µg/mL. The “P. aeruginosa PBP3 Potency” value on P. aeruginosa PBP3 is “D (D represents a potency <10 μM)”.

Compound `CCN1CCN(C(=O)NC(C(=O)N[C@H]2Cc3cccc(C(=O)O)c3OB2O)c2c(F)cc(NC(=O)NC)cc2F)C(=O)C1=O` (stereo partly drawn) [Example 213, (3R)-3-(2-(2,6-difluoro-4-(3-methylureido)phenyl)-2-(4-ethyl-2,3-dioxopiperazine-1-carboxamido)acetamido)-2-hydroxy-3,4-dihydro-2H-benzo[e][1,2]oxaborinine-8-carboxylic acid] returned an EC50 at E. coli K12 PBP3 of less than 30 µM. Also, the MIC in test [1] is 4 to 8 µg/mL (≈ 6.49 to 13 µM); with N. gonorrhoeae WHO K, greater than 64 µg/mL; in the test on N. gonorrhoeae WHO L, greater than 64 µg/mL; in the test on N. gonorrhoeae WHO G, 1 to 2 µg/mL (≈ 1.62 to 3.24 µM); in the test on N. gonorrhoeae WHO Z it was 16 to 32 µg/mL (≈ 26 to 51.9 µM); in the test with N. gonorrhoeae WHO Q, greater than 64 µg/mL. The MIC in the test with N. gonorrhoeae FA1090 is less than 0.125 µg/mL; with N. gonorrhoeae H041, greater than 64 µg/mL. For the same compound, the “P. aeruginosa PBP3 Potency” value at P. aeruginosa PBP3 is “D (D represents a potency <10 μM)”.
